Reference: the supplement of paper PMC10307832

Key:
Test in all cases: relative viability (nuclei count vs DMSO), 5 days (fraction); higher = more cells survive
OSI-027 + Navitoclax = compound: COc1cccc2cc(-c3nc([C@H]4CC[C@H](C(=O)O)CC4)n4ncnc(N)c34)[nH]c12 [OSI-027] + CC1(C)CCC(c2ccc(Cl)cc2)=C(CN2CCN(c3ccc(C(=O)NS(=O)(=O)c4ccc(N[C@H](CCN5CCOCC5)CSc5ccccc5)c(S(=O)(=O)C(F)(F)F)c4)cc3)CC2)C1 [Navitoclax] (partner 0.5 µM)
How it was run: (§1)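 Five library-drug doses in √10 steps were combined with a fixed anchor-drug dose, or a single drug was given alone, by pin tool to lung cancer cell lines in 1536-well plates the day after seeding. Nuclei were stained and counted after 5 days. Relative viability is the nuclei count in treated wells over that in vehicle wells, taken as the median of duplicate plates.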

Alpelisib + Phenformin = compound: Cc1nc(NC(=O)N2CCC[C@H]2C(N)=O)sc1-c1ccnc(C(C)(C)C(F)(F)F)c1 [Alpelisib] + N=C(N)NC(=N)NCCc1ccccc1 [Phenformin] (partner 250 µM)
How it was run: as §1

OSI-027 + Dasatinib = compound: COc1cccc2cc(-c3nc([C@H]4CC[C@H](C(=O)O)CC4)n4ncnc(N)c34)[nH]c12 [OSI-027] + Cc1nc(Nc2ncc(C(=O)Nc3c(C)cccc3Cl)s2)cc(N2CCN(CCO)CC2)n1 [Dasatinib] (partner 0.075 µM)
How it was run: as §1

Alpelisib + Palbociclib = compound: Cc1nc(NC(=O)N2CCC[C@H]2C(N)=O)sc1-c1ccnc(C(C)(C)C(F)(F)F)c1 [Alpelisib] + CC(=O)c1c(C)c2cnc(Nc3ccc(N4CCNCC4)cn3)nc2n(C2CCCC2)c1=O [Palbociclib] (partner 0.5 µM)
How it was run: as §1

Cell Line | relative viability (OSI-027 + Navitoclax; first compound 0.01 µM) | relative viability (OSI-027 + Navitoclax; first compound 0.03162 µM) | relative viability (OSI-027 + Navitoclax; first compound 0.1 µM) | relative viability (OSI-027 + Navitoclax; first compound 0.3162 µM) | relative viability (OSI-027 + Navitoclax; first compound 1 µM) | relative viability (Alpelisib + Phenformin; first compound 0.04 µM) | relative viability (Alpelisib + Phenformin; first compound 0.1265 µM) | relative viability (Alpelisib + Phenformin; first compound 0.4 µM) | relative viability (Alpelisib + Phenformin; first compound 1.265 µM) | relative viability (Alpelisib + Phenformin; first compound 4 µM) | relative viability (OSI-027 + Dasatinib; first compound 0.01 µM) | relative viability (OSI-027 + Dasatinib; first compound 0.03162 µM) | relative viability (OSI-027 + Dasatinib; first compound 0.1 µM) | relative viability (OSI-027 + Dasatinib; first compound 0.3162 µM) | relative viability (OSI-027 + Dasatinib; first compound 1 µM) | relative viability (Alpelisib + Palbociclib; first compound 0.04 µM) | relative viability (Alpelisib + Palbociclib; first compound 0.1265 µM) | relative viability (Alpelisib + Palbociclib; first compound 0.4 µM) | relative viability (Alpelisib + Palbociclib; first compound 1.265 µM) | relative viability (Alpelisib + Palbociclib; first compound 4 µM)
NCI-H2085 | 1.11 | 1.12 | 1.1 | 0.931 | 0.7 | 0.73 | 0.631 | 0.782 | 0.698 | 0.621 | 0.199 | 0.222 | 0.188 | 0.227 | 0.211 | 0.464 | 0.484 | 0.455 | 0.447 | 0.446
NCI-H2087 | 1.09 | 0.998 | 0.8 | 0.537 | 0.353 | 0.491 | 0.483 | 0.501 | 0.36 | 0.284 | 0.856 | 0.937 | 0.923 | 0.611 | 0.453 | 0.301 | 0.237 | 0.246 | 0.257 | 0.193
NCI-H2126 | 0.885 | 0.856 | 0.818 | 0.679 | 0.801 | 0.541 | 0.498 | 0.501 | 0.381 | 0.343 | 0.562 | 0.56 | 0.504 | 0.374 | 0.45 | 0.363 | 0.334 | 0.345 | 0.359 | 0.334
NCI-H2170 | 0.651 | 0.565 | 0.471 | 0.535 | 0.221 | 0.466 | 0.384 | 0.438 | 0.45 | 0.387 | 0.635 | 0.506 | 0.506 | 0.56 | 0.315 | 0.351 | 0.337 | 0.36 | 0.246 | 0.21
NCI-H2228 | 0.978 | 1.34 | 0.81 | – | 0.303 | 0.363 | 0.284 | 0.306 | 0.171 | 0.175 | 0.506 | 0.467 | 0.568 | 0.445 | 0.24 | 0.748 | 0.519 | 0.771 | 0.332 | 0.355
NCI-H2347 | 0.916 | 0.764 | 0.609 | 0.626 | 0.333 | 0.445 | 0.299 | 0.416 | 0.38 | 0.376 | 0.281 | 0.379 | 0.205 | 0.22 | 0.268 | 0.417 | 0.45 | 0.407 | 0.474 | 0.423
NCI-H2405 | 0.858 | 0.791 | 0.768 | 0.636 | 0.384 | 0.371 | 0.345 | 0.368 | 0.304 | 0.272 | 0.2 | 0.204 | 0.185 | 0.209 | 0.178 | 0.515 | 0.536 | 0.52 | 0.43 | 0.462
NCI-H3122 | 1.03 | 1.14 | 1.13 | 1.03 | 0.334 | 0.409 | 0.403 | 0.41 | 0.399 | 0.316 | 0.831 | 0.844 | 0.923 | 0.631 | 0.391 | 0.163 | 0.162 | 0.188 | 0.185 | 0.144
PC-3 [JPC-3] | 0.822 | 0.765 | 0.772 | 0.739 | 0.547 | 0.502 | 0.496 | 0.503 | 0.454 | 0.463 | 0.883 | 0.895 | 1.03 | 0.936 | 0.494 | 0.591 | 0.556 | 0.581 | 0.521 | 0.559
PC-14 | 1.02 | 0.998 | 1.05 | 1.05 | 0.939 | 0.653 | 0.406 | 0.67 | 0.54 | 0.526 | 0.237 | 0.253 | 0.241 | 0.303 | 0.197 | 0.556 | 0.499 | 0.602 | 0.464 | 0.497
RERF-LC-KJ | 0.795 | 1 | 0.839 | 0.672 | 0.289 | 0.427 | 0.394 | 0.433 | 0.345 | 0.33 | 0.835 | 0.776 | 0.748 | 0.557 | 0.349 | 1.1 | 1.03 | 1.16 | 0.759 | 0.928
SK-LU-1 | 0.743 | 0.869 | 0.679 | 0.453 | 0.259 | 0.495 | 0.498 | 0.434 | 0.408 | 0.358 | 0.169 | 0.172 | 0.178 | 0.127 | 0.134 | 0.398 | 0.372 | 0.386 | 0.326 | 0.377
SK-MES-1 | 1.27 | 1.23 | 1.17 | 0.974 | 0.484 | 0.662 | 0.635 | 0.755 | 0.608 | 0.675 | 0.293 | 0.407 | 0.295 | 0.25 | 0.247 | 0.361 | 0.307 | 0.313 | 0.254 | 0.3
SW 1573 | 0.889 | 1.05 | 0.902 | 0.757 | 0.504 | 0.306 | 0.335 | 0.272 | 0.217 | 0.257 | 0.379 | 0.456 | 0.477 | 0.494 | 0.331 | 0.409 | 0.401 | 0.366 | 0.201 | 0.284
